The values below come from ChEMBL document CHEMBL5236629, “Antioxidant and Neuroprotective Effects of the First Tryptophyllin Found in Snake Venom (Bothrops moojeni)” (J Nat Prod, 2022).

For orientation: CC50 means the concentration giving 50% cytotoxicity.

Data set [1] is described as follows: Antioxidant activity assessed as trolox equivalent of ABTS radical scavenging activity measured for 6 mins. The data set is classed as functional.
Data set [2] in a line: Antioxidant activity assessed as trolox equivalent of AAPH radical scavenging activity preincubated for 15 mins followed by 10 sec incubation under shaking condition and measured every minute for 2 hrs by ORAC fluorescence based microplate reader analysis. The data set is classed as functional. The conditions noted are these: time 8110.0 sec.
The nature of data set [3]: Hemolytic activity in human red blood cell assessed as cell membrane disruption at 12.5 to 400 ug/ml incubated for 1 hrs by microplate reader analysis. The data set is classed as toxicity, cell-based. The conditions noted are these: erythrocyte, dose 12.5-400 µg/ml.
For the next data set, the system named is Erythrocyte. The experiment in a line: Protection against AAPH-induced hemolysis in human RBC at 25 to 400 ug/ml preincubated with compound for 20 mins followed bu AAPH addition and measured after 3 hrs by spectrophotometric analysis. The data set is classed as functional, cell-based. The following applies: dose 25-400 µg/ml, time 200.0 min.
Data set [4] in a line: Protection against AAPH-induced hemolysis in human RBC at 50 to 100 ug/ml preincubated with compound for 20 mins followed bu AAPH addition and measured after 3 hrs by spectrophotometric analysis relative to control. The data set is classed as functional, Erythrocyte. The conditions noted are these: dose 50-100 µg/ml; time 200 min; 3.333 h; at 50 to 100 µg/mL.
Data set [5] is described as follows: Cytotoxicity against human SK-N-BE(2) cells assessed as reduction in cell viability incubated for 24 hrs by MTT assay. The data set is classed as toxicity, cell-based. For orientation: Tetrazolium assays rely on reduction of a dye to a coloured formazan, in cell work by metabolically active cells.
A short description of data set [6]: Antioxidant activity assessed as protection against AAPH-induced DNA degradation in to linear form incubated for 1 hrs by SYBR dye based electrophoresis. Format: functional.
Data set [7] concerns N2a. The experiment in a line: Antioxidant activity in arsenite-induced mouse Neuro2a cells assessed as reduction in Nrf2 protein level at 100 uM incubated for 3 hrs by Western blot analysis. The data set is classed as functional, cell-based.
The test system of data set [8] is N2a. The experiment in a line: Antioxidant activity in arsenite-induced mouse Neuro2a cells assessed as increase in SOD level at 100 uM incubated for 3 hrs by Western blot analysis. The data set is classed as functional, cell-based. On the technique in general: Immunoblotting shows a protein as a band on a membrane.
In data set [9] the test system is SK-N-BE(2). The experiment in a line: Antioxidant acitivity against PMA-stimulated human SK-N-BE(2) cells assessed as reduction in PMA-stimulated ROS level at 50 to 100 uM incubated for 60 mins by DCFH-DA staining based flow cytometric analysis. The conditions noted are these: dose 50-100 µM. The data set is classed as functional, cell-based.
The test system of data set [10] is SK-N-BE(2). In words: Antioxidant acitivity against PMA-stimulated human SK-N-BE(2) cells assessed as reduction in PMA-stimulated RNS level at 50 uM incubated for 60 mins by DCFH-DA staining based flow cytometric analysis. The data set is classed as functional, cell-based. Background: A flow cytometer gives signals particle by particle.

Calls of active or inactive are those of the source. The rule behind the calls is not given here. Where a SMILES comes first, the peptide text is derived from it. A value given as a limit tells only on which side of the number the result lay.

Take `CC[C@H](C)[C@H](NC(=O)[C@H](Cc1c[nH]c2ccccc12)NC(=O)[C@@H]1CCCN1C(=O)[C@@H](N)Cc1ccccc1)C(=O)N[C@H](C(=O)N[C@@H](CO)C(N)=O)[C@@H](C)CC` (H-FPWIIS-NH2): the Activity in data set [1] was 796 µM/g; in [2], 674 µM/g; in data set [3], “Non-Toxic”; in data set [4], over 75%. Further, the outcome (in the data set on Erythrocyte; in data set [6]; with N2a [7]; in the data set with SK-N-BE(2) [9]; in the data set on SK-N-BE(2) [10]) was Active. Also, in [5], the cytotoxic concentration (CC50) at 24 h amounted to 1.73 mM. Further, the result with N2a [8] was inactive.
